Three compounds from the supplement of paper PMC11061612 can be followed below.

Holding throughout (assay): Bliss excess, mean over the matrix (fraction); higher = more synergy
The subject of assay [1] is NCI-H1299 (Non-Small Cell Lung Carcinoma). A digest of the protocol:
(§1)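 After 24 hours at 37°C and 5% CO2 in 1536-well plates, cells in DMEM/F12 or RPMI plus 10% FBS received two-drug dose matrices for 72 hours. Viability came from CellTiter-Glo 2.0 luminescence and was scaled as inhibition, anchored at 0 by vehicle wells and at 1 by blank wells. Combination Emax is taken as the second-highest inhibition in the matrix, and Bliss excess as the observed combination effect less EA + EB − EA·EB, with EA and EB the single-agent effects.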

The test system of assay [2] is DB (B-Cell Non-Hodgkin's Lymphoma). A digest of the protocol:
as §1

For a further assay, the system named is DSH1 (Bladder Carcinoma). The gist of the method:
as §1

In assay [3] the test system is KM-H2 (Hodgkin's Lymphoma). A digest of the protocol: as §1
Assay [4] relates to 697 (B-Lymphoblastic Leukemia). A digest of the protocol:
as §1

For assay [5], the system named is SW1088 (Low Grade Glioma). The gist of the method:
as §1

The subject of assay [6] is SUIT-2 (Pancreatic Carcinoma). A digest of the protocol: as §1
In a further assay the test system is ES7 (Ewing's Sarcoma). A digest of the protocol:
as §1

Assay [7] concerns KARPAS-620 (Plasma Cell Myeloma). The gist of the method:
as §1

Another assay has as its system SN12C (Kidney Carcinoma). A digest of the protocol:
as §1

Assay [8] concerns OCI-AML2 (Acute Myeloid Leukemia). A digest of the protocol: as §1
Assay [9] has as its system KATOIII (Gastric Carcinoma). The gist of the method:
as §1

Assay [10] concerns MDA-MB-157 (Breast Carcinoma). A digest of the protocol: as §1
Assay [11] relates to LS-513 (Colorectal Carcinoma). A digest of the protocol:
as §1

Assay [12] relates to COR-L95 (Small Cell Lung Carcinoma). The gist of the method: as §1
In assay [13] the test system is NCI-H1694 (Small Cell Lung Carcinoma). The gist of the method:
as §1

The test system of assay [14] is IHH-4 (Thyroid Gland Carcinoma). The gist of the method: as §1
Assay [15] concerns KARPAS-1106P (B-Cell Non-Hodgkin's Lymphoma). A digest of the protocol:
as §1

Assay [16] relates to CFPAC-1 (Pancreatic Carcinoma). The gist of the method:
as §1

For a further assay, the system named is J82 (Bladder Carcinoma). A digest of the protocol:
as §1

`CC1(C)CCC(CN2CCN(c3ccc(C(=O)NS(=O)(=O)c4ccc(NCC5CCOCC5)c([N+](=O)[O-])c4)c(Oc4cnc5[nH]ccc5c4)c3)CC2)=C(c2ccc(Cl)cc2)C1` [Venetoclax] + Cn1cnc2c(F)c(Nc3ccc(Br)cc3Cl)c(C(=O)NOCCO)cc21 [Selumetinib] (first compound max 1 µM, 7x7, partner max 3 µM): the Bliss excess is -0.0424 in assay [1]; -0.0192 in [2]; 0.0225 with DSH1 (Bladder Carcinoma); -0.0221 in assay [3]; -0.0001 in assay [4]; -0.0407 in [5]. The Bliss excess in assay [6] was -0.0942; in the assay with ES7 (Ewing's Sarcoma) it was -0.0127; in [7], 0.16; in the assay with SN12C (Kidney Carcinoma), -0.0489; in [8], 0.014; in assay [9], -0.0235. Further, the Bliss excess was 0.0208 in assay [10]; -0.0159 in assay [11]; -0.0265 in assay [12]; -0.0313 in assay [13]; -0.0176 in assay [14]; -0.0009 in [15]. Further, the Bliss excess in assay [16] was -0.0142; in the assay with J82 (Bladder Carcinoma), -0.028.
With `Cc1c2c(nn1C)CSCc1cc(n(C)n1)CSc1cc(c3ccccc3c1)OCCCc1c(C(=O)O)n(C)c3c-2c(Cl)ccc13` [AZD5991] + C[C@@H]1COCCN1C2=NC(=NC(=C2)C3(CC3)[S@](=N)(=O)C)C4=C5C=CNC5=NC=C4 [AZD6738] (first compound max 1 µM, 7x7, partner max 10 µM), the Bliss excess in [1] was 0.0159; in assay [2], 0.0042; in the assay with DSH1 (Bladder Carcinoma), 0.0241; in [3] it was 0.0236; in assay [4], 0.0058; in assay [5] it was -0.0048. Further, the Bliss excess is -0.0025 in assay [6]; 0.0521 with ES7 (Ewing's Sarcoma); 0.0243 in [7]; -0.0144 with SN12C (Kidney Carcinoma); 0.0168 in assay [8]; -0.0192 in assay [9]. The Bliss excess in assay [10] is -0.0076; in assay [11] it was 0.0383; in assay [12], 0.0482; in assay [13] it was 0.0064; in assay [14], 0.0349; in assay [15], 0.0182. Further, the values for the Bliss excess (in assay [16]; in the assay on J82 (Bladder Carcinoma)) were 0.0442 and 0.0009, respectively.
`CC1(C)CCC(CN2CCN(c3ccc(C(=O)NS(=O)(=O)c4ccc(NCC5CCOCC5)c([N+](=O)[O-])c4)c(Oc4cnc5[nH]ccc5c4)c3)CC2)=C(c2ccc(Cl)cc2)C1` [Venetoclax] + C=CCn1c(=O)c2cnc(Nc3ccc(N4CCN(C)CC4)cc3)nc2n1-c1cccc(C(C)(C)O)n1 [AZD1775] (first compound max 1 µM, partner max 1 µM): the Bliss excess in assay [1] is 0.0038; in assay [2], 0.0119; with DSH1 (Bladder Carcinoma), -0.0476; in assay [3], 0.02; in assay [4] it was 0.0509; in [5], -0.003. Also, the Bliss excess is -0.0295 in assay [6]; 0.119 with ES7 (Ewing's Sarcoma); 0.0191 in assay [7]; 0 in the assay with SN12C (Kidney Carcinoma); 0.0028 in assay [8]; 0.0093 in [9]. Also, the Bliss excess is 0.0679 in [10]; -0.0581 in assay [11]; 0.001 in assay [12]; 0.0226 in assay [13]; -0.0654 in assay [14]; 0.0627 in [15]. The values for the Bliss excess (in [16]; in the assay on J82 (Bladder Carcinoma)) were -0.0185 and -0.0832, respectively.
